{"source": "paper PMC5524698", "about": "“A cell-based, quantitative and isoform-specific assay for exchange proteins directly activated by cAMP” (Scientific Reports, 2017)", "key": {"EPAC2 [1]": {"biological_target": "T1, EPAC2 (Mus musculus, UniProt Q9EQZ6)", "T1 construct": "HEK293 cell lines stably expressing Flag-tagged Rap1A and full-length EPAC1 or EPAC2 are proposed; expressed in transfected cells", "T1 sequence (Q9EQZ6 1-1011)": "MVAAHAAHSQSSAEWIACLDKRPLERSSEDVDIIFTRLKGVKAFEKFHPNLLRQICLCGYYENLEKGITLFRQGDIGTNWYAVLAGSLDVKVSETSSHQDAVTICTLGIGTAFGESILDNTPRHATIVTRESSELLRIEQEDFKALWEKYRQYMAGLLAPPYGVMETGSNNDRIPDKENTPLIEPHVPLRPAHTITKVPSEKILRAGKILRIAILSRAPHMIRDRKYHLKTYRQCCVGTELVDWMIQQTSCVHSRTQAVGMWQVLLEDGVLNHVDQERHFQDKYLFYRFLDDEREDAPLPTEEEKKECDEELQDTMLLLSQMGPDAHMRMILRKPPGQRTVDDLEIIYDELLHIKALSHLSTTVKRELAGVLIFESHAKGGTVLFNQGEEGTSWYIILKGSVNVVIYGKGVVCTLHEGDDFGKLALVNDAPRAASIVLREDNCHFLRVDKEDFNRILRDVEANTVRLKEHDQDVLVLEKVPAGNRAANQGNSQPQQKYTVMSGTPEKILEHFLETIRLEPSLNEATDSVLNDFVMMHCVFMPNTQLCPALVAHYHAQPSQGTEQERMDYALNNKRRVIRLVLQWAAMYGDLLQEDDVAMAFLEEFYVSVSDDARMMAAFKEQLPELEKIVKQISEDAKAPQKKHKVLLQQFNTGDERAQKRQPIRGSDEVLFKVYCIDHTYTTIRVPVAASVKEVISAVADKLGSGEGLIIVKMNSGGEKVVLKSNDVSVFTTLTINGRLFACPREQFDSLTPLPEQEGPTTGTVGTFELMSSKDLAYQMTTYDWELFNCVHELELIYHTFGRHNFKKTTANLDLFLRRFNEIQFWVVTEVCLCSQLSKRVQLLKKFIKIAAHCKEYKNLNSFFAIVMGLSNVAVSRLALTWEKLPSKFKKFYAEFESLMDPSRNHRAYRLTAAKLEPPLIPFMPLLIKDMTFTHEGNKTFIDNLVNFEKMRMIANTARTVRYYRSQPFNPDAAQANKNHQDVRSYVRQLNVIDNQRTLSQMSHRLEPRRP", "assay": "Cellular Rap1 assay (ELISA for Rap1-GTP) in HEK293/mEPAC2/Flag-Rap1 cells", "format": "cell-based", "experimental": "HEK293 cells co-expressing hEPAC1/Flag-tagged hRap1A or mEPAC2/Flag-tagged hRap1A were seeded in 12-well plates (Corning #3513) at an initial confluency of 400,000 cell/well and incubate at 37 °C, 5% CO2, in MEM medium with 10% FBS, for 24 hours. Cells were then rinsed with HBSS and cultured in FBS-free MEM medium for another 16 hours. If necessary cells were first pretreated with various concentration of antagonists or vehicle at 37 °C for 30 min. Otherwise, the cells were stimulated with various concentrations of agonists or vehicle controls at 37 °C for 10 min, then immediately rinsed with ice-cold PBS and lysed in 500 µl ice-cold lysis buffer containing 20 mM Tris-HCl, pH 7.4, 150 mM NaCl, 10 mM MgCl2, 1% IGEPAL CA-630 and proteinase inhibitors cocktail. Cell extracts were clarified by centrifugation at 18,000 RCF for 20 min and their protein concentrations were determined by DC protein assay kit. […] 200 µl of OPD substrate was added into each well and absorbance signal at 450 nm was monitored using an M2 microplate reader (Molecular Devices) for 30 min with 1-min intervals. 10-min data points were used for quantification."}, "EPAC1 [2]": {"biological_target": "T2, EPAC1 (Homo sapiens, UniProt O95398)", "T2 construct": "HEK293 cell lines stably expressing Flag-tagged Rap1A and full-length EPAC1 or EPAC2 are proposed; expressed in transfected cells", "T2 sequence (O95398 1-923)": "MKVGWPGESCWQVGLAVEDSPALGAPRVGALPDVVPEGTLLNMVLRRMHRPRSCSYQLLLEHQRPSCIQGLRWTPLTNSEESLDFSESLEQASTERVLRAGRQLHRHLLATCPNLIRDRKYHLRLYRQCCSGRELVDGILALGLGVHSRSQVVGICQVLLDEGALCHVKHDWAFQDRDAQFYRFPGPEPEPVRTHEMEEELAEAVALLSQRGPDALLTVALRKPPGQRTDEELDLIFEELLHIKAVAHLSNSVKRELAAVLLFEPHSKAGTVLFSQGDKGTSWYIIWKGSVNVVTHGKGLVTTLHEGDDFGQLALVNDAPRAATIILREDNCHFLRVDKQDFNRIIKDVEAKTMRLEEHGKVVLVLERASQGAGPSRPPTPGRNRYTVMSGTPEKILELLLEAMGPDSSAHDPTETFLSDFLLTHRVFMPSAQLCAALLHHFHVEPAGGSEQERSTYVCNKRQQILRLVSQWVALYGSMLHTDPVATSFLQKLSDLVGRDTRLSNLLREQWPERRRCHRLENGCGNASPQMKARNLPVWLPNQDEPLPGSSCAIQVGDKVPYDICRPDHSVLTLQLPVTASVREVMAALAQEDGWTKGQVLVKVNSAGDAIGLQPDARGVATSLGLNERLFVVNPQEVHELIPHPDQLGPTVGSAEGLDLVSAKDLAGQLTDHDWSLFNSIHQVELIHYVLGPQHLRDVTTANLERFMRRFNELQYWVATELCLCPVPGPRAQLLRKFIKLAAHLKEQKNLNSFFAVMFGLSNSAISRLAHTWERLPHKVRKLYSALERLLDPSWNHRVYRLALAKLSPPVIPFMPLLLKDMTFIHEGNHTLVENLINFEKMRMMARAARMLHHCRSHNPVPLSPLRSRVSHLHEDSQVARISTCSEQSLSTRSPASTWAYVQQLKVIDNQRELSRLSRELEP", "assay": "Cellular Rap1 assay (ELISA for Rap1-GTP) in HEK293/hEPAC1/Flag-Rap1 cells", "format": "cell-based", "settings": "for AC50: 10 min stimulation, read-out: apparent half maximal activation constant (AC50), Rap1-GTP levels", "from_the_text": "To develop a cell-based, isoform-specific EPAC activation assay, HEK293 cell lines stably expressing Flag-tagged Rap1A and full-length EPAC1 or EPAC2 are proposed. HEK293 cells express minimal endogenous levels of EPAC1 and EPAC2 and have been used as host cells for evaluating the cellular activities of ectopically expressed EPAC proteins in an isoform-specific manner. Activation of EPAC1 or EPAC2 in these cell lines by cAMP elevating agents leads to the accumulation of Flag-Rap1-GTP, which can be captured by RalGDS-RBD immobilized in a nickel-coated 96-well microplate. The levels of active Flag-Rap1-GTP protein can be quantitatively monitored using a specific anti-FLAG antibody and a HRP conjugated secondary antibody in a manner similar to that of a conventional ELISA assay (Fig. 1).\nHEK293 (ATCC) cells were grown in MEM medium supplemented with 10% heat-inactivated FBS (Invitrogen), at 37 °C, 5% CO2. HEK293 stable cell lines expressing Flag-tagged human Rap1A (Flag-hRap1A) alone and co-expressing human EPAC1 (hEPAC1) and Flag-hRap1A or mouse EPAC2 (mEPAC2) and Flag-hRap1A were established by sequential transfections using Lipofectamine 2000 reagent (Invitrogen) with mammalian expression vectors, first with pIRES2-EGFP containing Flag-hRap1A and followed by pIRES‐hyg2 containing hEPAC1 or mEPAC2. Individual stable cell clones were selected and maintained in MEM containing 500 µg/ml G418 for pIRES2-EGFP and 100 µg/ml hygromycin B for pIRES‐hyg2, respectively.\nHEK293 cells co-expressing hEPAC1/Flag-tagged hRap1A or mEPAC2/Flag-tagged hRap1A were seeded in 12-well plates (Corning #3513) at an initial confluency of 400,000 cell/well and incubate at 37 °C, 5% CO2, in MEM medium with 10% FBS, for 24 hours. Cells were then rinsed with HBSS and cultured in FBS-free MEM medium for another 16 hours. If necessary cells were first pretreated with various concentration of antagonists or vehicle at 37 °C for 30 min. Otherwise, the cells were stimulated with various concentrations of agonists or vehicle controls at 37 °C for 10 min, then immediately rinsed with ice-cold PBS and lysed in 500 µl ice-cold lysis buffer containing 20 mM Tris-HCl, pH 7.4, 150 mM NaCl, 10 mM MgCl2, 1% IGEPAL CA-630 and proteinase inhibitors cocktail. Cell extracts were clarified by centrifugation at 18,000 RCF for 20 min and their protein concentrations were determined by DC protein assay kit. 100 µl of properly diluted cell lysates containing 0 to 50 µg total proteins were added to nickel coated 96-well plate strips that were pre-coated with 200 µg of RalGDS-RBD-His6 proteins and incubated at 4 °C for 2 hours with gentle rocking. After washing with 100 µl ice-cold ELISA buffer (20 mM Tris-HCl, pH 7.4, 150 mM NaCl, 10 mM MgCl2 and 0.1% Tween-20) for 3 times, 100 µl mouse anti-Flag antibody (1:5000 in ELISA buffer) was added into each well and incubated at 4 °C for 1 hour with gentle shaking. Following three washes with 100 µl ice-cold ELISA buffer, 100 µl anti-mouse HRP-conjugated antibodies (1:3000 in ELISA buffer) were added into each well. After incubation at room temperature for 1 hour with gentle shaking, the wells were washed three times with 100 µl ELISA buffer. 200 µl of OPD substrate was added into each well and absorbance signal at 450 nm was monitored using an M2 microplate reader (Molecular Devices) for 30 min with 1-min intervals. 10-min data points were used for quantification."}, "EPAC1 [3]": {"biological_target": "T2, EPAC1", "assay": "Conventional affinity pull-down assay of Rap1-GTP using GST-RalGDS-RBD, immunoblot", "format": "cell-based", "settings": "HEK293/hEPAC1/Flag-Rap1 cells, various concentrations", "from_the_text": "Forskolin is a labdane diterpene natural product, commonly used a biochemical tool to stimulate intracellular levels of cAMP[31]. Treatment of HEK293/hEPAC1/Flag-Rap1 or HEK293/mEPAC2/ Flag-Rap1 cells with forskolin led to a dose-dependent increase in Rap1-GTP levels in both cell lines (Fig. 3A,B). […] Since forskolin-mediated increase in intracellular cAMP activates both EPAC and PKA, to ensure that the signals observed in our assay were not in part due to the activation of PKA, control experiments in the presence of a PKA-specific inhibitor, H89, were performed.\nFigure S1. Dose-dependent cellular activation of EPAC1 by forskolin. Relative Rap1-GTP levels, as monitored by affinity pull-down assay using GST-RalGDS-RBD, in HEK293 cells overexpressing EPAC1 stimulated by various concentrations of forskolin. Inset: representative immunoblot image of Rap1-GTP levels under basal and forskolin-stimulated conditions."}, "EPAC2 [4]": {"test_system": "EPAC2", "design": "method as in PMID 23091014, PMID 23286832", "settings": "in the presence of 20 µM cAMP; selective for EPAC2, not EPAC1; cited from earlier work"}}}
{"smiles": "CO[C@@H]1[C@@H]2OP(=O)(OCOC(C)=O)OC[C@H]2O[C@H]1n1c(Sc2ccc(Cl)cc2)nc2c(N)ncnc21", "note": "(stereo partly shown) [007-AM, 8-pCPT-2-O-Me-cAMP-AM]", "values": [{"measurement": "dose-dependent activation of EPAC2 (Rap1-GTP levels)", "setting": "EPAC2 [1]; up to 10 µM", "result": "did not reach plateau"}, {"measurement": "AC50", "setting": "EPAC1 [2]; HEK293/hEPAC1/Flag-Rap1 cells", "result": "0.0165 ± 0.0031", "unit": "µM"}]}
{"smiles": "CC(C)(C)c1cc(C(=O)/C(C#N)=N/Nc2cc(Cl)c(Cl)c(Cl)c2)no1", "note": "[NY-0123]", "values": [{"measurement": "IC50", "setting": "EPAC2 [1]; stimulated by 1 µM Forskolin, 30 min pretreatment, read-out: apparent IC50, inhibition of cellular EPAC2 activity", "result": "9.6 ± 1.6", "unit": "µM"}, {"measurement": "IC50", "setting": "EPAC1 [2]; stimulated by 1 µM Forskolin, 30 min pretreatment, HEK293/hEPAC1/Flag-Rap1 cells, read-out: apparent IC50, inhibition of cellular EPAC1 activity", "result": "4.9 ± 0.6", "unit": "µM"}]}
{"smiles": "O=S(=O)(NCCNC/C=C/c1ccc(Br)cc1)c1cccc2cnccc12", "note": "[H89]", "values": [{"measurement": "effects on basal and forskolin-induced Rap1 activities", "setting": "EPAC1 [2]; 10 µM H89, HEK293 cells overexpressing EPAC1 (Fig. S2)", "result": "minimal"}]}
{"smiles": "C=C[C@@]1(C)CC(=O)[C@]2(O)[C@@]3(C)[C@@H](O)CCC(C)(C)[C@@H]3[C@H](O)[C@H](OC(C)=O)[C@@]2(C)O1", "note": "[Forskolin]", "values": [{"measurement": "AC50", "setting": "EPAC2 [1]; 10 min stimulation, read-out: apparent half maximal activation constant (AC50), Rap1-GTP levels", "result": "0.137 ± 0.036", "unit": "µM"}, {"measurement": "activation of Rap1 (relative Rap1-GTP levels, pull-down)", "setting": "EPAC1 [3]", "result": "dose-dependent activation"}, {"measurement": "AC50", "setting": "EPAC1 [2]; HEK293/hEPAC1/Flag-Rap1 cells", "result": "0.226 ± 0.057", "unit": "µM"}]}
{"smiles": "Cc1ccc(S(=O)(=O)c2c(C)cc(C)cc2C)cc1", "note": "[ESI-05]", "values": [{"measurement": "potency of EPAC2 inhibition", "setting": "EPAC2 [4]", "result": "sub-micromolar"}, {"measurement": "inhibition of cellular EPAC1 activation", "setting": "EPAC1 [2]; stimulated by 1 µM Forskolin, HEK293/hEPAC1/Flag-Rap1 cells", "result": "no detectable activity"}]}
